Where “and” joins values, the source holds several entries; their conditions need not be identical. Equal values may be shown once.
Experiments:
[1] = tested on: Sandhoff disease patient fibroblasts; assay: Glycosphingolipid (GSL) levels by HPLC in Sandhoff disease patient fibroblasts; assay type: cell-based, human; details: 1 mM for 6 days
patients with ataxia = details: Becker-Bense et al. 2015; cited from earlier work
[2] = tested on: patients with Niemann-Pick Type C (NPC); details: one-month study, 12 NPC patients; Bremova et al. 2015; cited from earlier work
[3] = tested on: wild-type (Npc1^+/+) mice; assay: In vivo mouse study in wild-type (Npc1+/+) littermates (weight, gait, motor function)
Protocol: Wild-type (Npc1^+/+) littermates were used as a control.
Separate groups of Npc1^−/− and Npc1^+/+ mice were left untreated, as controls.
Animals were weighed twice a week. Weights were averaged (mean) across all mice in each group and compared.
Gait analysis was performed on mice at eight weeks of age using a CatWalk® 15.0 system according to manufacturer's instructions (Noldus, Nottingham, UK). Five runs were recorded per animal.
CatWalk® parameters measured were: • 1. Stand Mean: average duration (s) of paws in contact with glass plate; • 2. Step Cycle: duration (s) between two consecutive contacts of the same paw; • 3. Duty Cycle: percentage of time paws in contact with plate compared with time to complete a step cycle; • 4. Step Sequence (AB): percentage of time spent walking in LF-RH-RF-LH alternating pattern (LF: left front; RH: right hind; RF: right front; LH left hind); • 5. Cadence: step per seconds in a trial; • 6. Diagonal Support: percentage of time with simultaneous contact of diagonal paws with the glass plate (RF&LH or RH&LF). Motor Function Analysis
Motor function analysis was performed on mice at eight and nine weeks of age using an Open Field Activity Monitor according to manufacturer's instructions (Linton Instruments, Amlogger Software). Each mouse was placed in a plastic cage with bedding and analysed for five minutes. Rears were counted manually.
Motor function parameters measured were: • 1. Centre Rearing: mice rearing on hind legs unsupported; • 2. Rearing: mice rearing on hind legs with and without the support of cage walls; • 3. Activity: regular movement of the animal including walks; • 4. Front to Back (FR) count: movement of the animal from front to back of the cage; • 5. Active Time: duration (s/min) of activeness regardless of movement; • 6. Mobile Time: duration (s/min) of mobility; • 7. Rearing Time: duration of any rearing.

[4] = tested on: patient genetically diagnosed with GM1 Gangliosidosis; assay: Case study of a GM1 Gangliosidosis patient (SARA, mRDS, EQ-5D-5L); assay type: in vivo, human; details: after one month
Text: The patient in this case study was a person who was genetically diagnosed with GM1 Gangliosidosis and who was not able to stand or walk by themself, was very limited in daily activities (eating, washing, dressing themself was not possible), and had ocular movement disorder, anarthria, and distinct problems in cognitive function and concentration (neurological examination was not possible).
Before treatment was commenced, examination of the patient indicated a Scale for Assessment and Rating of Ataxia (SARA) score of 35/40, a mRDS score of 15, and a EQ-5D-5L visual scale of 50.
The patient was started on therapy with acetyl-leucine at a dose of 1.5 g per day for the first week, followed by a dose of 3 g per day for the second week onwards.

NPC patients = assay: Clinical severity score (CSS) and annual severity increment score (ASIS) in ten NPC patients; assay type: in vivo, human; details: 4.5 g/day
Text: An NPC patient's severity may be quantified by assigning a clinical severity score (CSS), which assesses various parameters of the disease and gives each parameter a score out of 5 (higher score =greater severity). See Yanjanin et al., “Linear Clinical Progression, Independent of Age of Onset, in Niemann-Pick Disease, Type C,” Am J Med Genet Part B 153B:132-140. In an untreated patient, one can typically predict how the CSS will change over time in an individual, as disease progression appears to be linear. For example, if Patient A moves from a CSS of 8 to a CSS of 12 between month 0 and month 12, it can be predicted that by month 36, the patient will have a CSS of 20. The annual severity increment score (ASIS) quantities the annual rate of change in the CSS, calculated by dividing the CSS of a patient by the patient's age. […] Each year, the patient would be expected to progress by 4 CSS points, such that at 4 years of age, the patient's CSS would be 16. If therapeutic intervention slowed or arrested disease progression, one would expect the patient to have a smaller ASIS score after such therapy than at baseline.
Ten NPC patients were administered acetyl-leucine at 4.5 g/day over long durations. A CSS was determined at baseline, and at various time points, for eye movement, ambulation, speech, swallow, fine motor skills, cognition, memory, and seizures. An overall CSS was calculated at baseline and at each such time point by adding the individual CSS values for each parameter (eye movement, ambulation, etc.).
The ASIS at baseline and each time point was calculated using each patient's CSS and age at the time of assessment. The overall ASIS for each patient at each time point is shown below in Table 15.

[5] = one line per patient, days per Table 5, listed as acetyl-leucine
[6] = one line per patient, score out of 5, listed as acetyl-leucine

In the case of `CC(=O)NC(CC(C)C)C(=O)O` (racemic) [acetyl-DL-leucine], the “GSL levels (GSL storage)” value [1] is listed as “trend towards decreased GSL levels”, the “Brain metabolism by PET” value (patients with ataxia) is listed as “increased metabolism in the midbrain and lower brainstem in responders” and the Ataxia symptoms [2] is listed as “symptomatic improvement of ataxia”. For the same molecule, the “Effect on weight gain” value ([3]; 0.1 g/kg from weaning, three to 10 weeks of age) was “no significant effect”, the “Gait properties versus untreated littermates” value ([3]; 0.1 g/kg, eight weeks of age) was “no significant difference” and the “Motor function properties versus untreated littermates” value ([3]; 0.1 g/kg, nine weeks of age) was “no significant difference”. For the same molecule, the SARA ([4]; 1.5 g then 3 g per day) was 35/40, the Clinical re-examination findings [4] was “stable general condition, increased gait (more fluent), and stable stance in natural position” and the mRDS [4] was 16. The “CSS overall, Time Point 2” value (NPC patients; one line per patient (Patient I.D 1-10), days per Table 5, listed as acetyl-leucine) was 33 and 12 (3×) and 13 and 23 and 19 and 22 and 11 (2×), the “CSS overall, Time Point 3” value (NPC patients; [5]) was 33 and 11 (2×) and 10 (2×) and 12 and 21 (2×) and 19 and the “CSS overall, Time Point 4” value (NPC patients; [5]) was 33 and 12 and 21. The “CSS eye movement, Time Point 4” value (NPC patients; one line per patient, score out of 5) was 3, the “CSS ambulation, Time Point 2” value (NPC patients; [6]) was 5 and 1 (3×) and 2 (5×) and 4 and the “CSS ambulation, Time Point 4” value (NPC patients; [6]) was 5 and 1 and 2. The “CSS cognition, Time Point 2” value (NPC patients; [6]) was 5 and 3 (5×) and 4 (3×) and 2, the “CSS cognition, Time Point 3” value (NPC patients; [6]) was 5 and 3 (5×) and 4 (3×) and the “CSS cognition, Time Point 4” value (NPC patients; [6]) was 5 and 3 and 4. The “CSS eye movement, Time Point 2” value (NPC patients; [6]) was 3 (9×) and 2, the “CSS eye movement, Time Point 3” value (NPC patients; [6]) was 3 (7×) and 2 (2×) and the “CSS fine motor skills, Time Point 2” value (NPC patients; [6]) was 5 and 1 (6×) and 4 (2×) and 2. The “CSS fine motor skills, Time Point 3” value (NPC patients; [6]) was 5 and 1 (5×) and 4 (2×) and 2, the “CSS fine motor skills, Time Point 4” value (NPC patients; [6]) was 5 and 1 and 4 and the “CSS memory, Time Point 2” value (NPC patients; [6]) was 4 (3×) and 1 (5×) and 3 and 0. For the same molecule, the “CSS memory, Time Point 3” value (NPC patients; [6]) was 4 (2×) and 0 (2×) and 1 (3×) and 3 (2×), the “CSS memory, Time Point 4” value (NPC patients; [6]) was 4 and 1 and 3 and the “CSS seizures, Time Point 2” value (NPC patients; [6]) was 5 and 0 (9×). For the same molecule, the “CSS seizures, Time Point 3” value (NPC patients; [6]) was 5 and 0 (8×), the “CSS seizures, Time Point 4” value (NPC patients; [6]) was 5 and 0 (2×) and the “CSS speech, Time Point 2” value (NPC patients; [6]) was 2 (4×) and 1 (6×). For the same molecule, the “CSS speech, Time Point 3” value (NPC patients; [6]) was 2 (3×) and 1 (6×), the “CSS speech, Time Point 4” value (NPC patients; [6]) was 2 (2×) and 1 and the “CSS swallow, Time Point 2” value (NPC patients; [6]) was 4 and 2 (5×) and 3 (3×) and 0. The “CSS swallow, Time Point 3” value (NPC patients; [6]) was 4 and 2 (4×) and 3 (3×) and 0, the “CSS swallow, Time Point 4” value (NPC patients; [6]) was 4 and 2 and 3 and the “Change in overall CSS over the course of the experiment” value (NPC patients; ten NPC patients) was “none of the ten patients showed an overall increase in CSS”.
